Read-outs that look alike come from different tables or passages of the source.
Target: T1, AR protein (Homo sapiens, UniProt P10275, T878A)
T1 construct: The percent AR protein degradation induced by these compounds at various concentrations in LNCaP cells; host or cells: LNCaP
T1 sequence (P10275 1-920 T878A): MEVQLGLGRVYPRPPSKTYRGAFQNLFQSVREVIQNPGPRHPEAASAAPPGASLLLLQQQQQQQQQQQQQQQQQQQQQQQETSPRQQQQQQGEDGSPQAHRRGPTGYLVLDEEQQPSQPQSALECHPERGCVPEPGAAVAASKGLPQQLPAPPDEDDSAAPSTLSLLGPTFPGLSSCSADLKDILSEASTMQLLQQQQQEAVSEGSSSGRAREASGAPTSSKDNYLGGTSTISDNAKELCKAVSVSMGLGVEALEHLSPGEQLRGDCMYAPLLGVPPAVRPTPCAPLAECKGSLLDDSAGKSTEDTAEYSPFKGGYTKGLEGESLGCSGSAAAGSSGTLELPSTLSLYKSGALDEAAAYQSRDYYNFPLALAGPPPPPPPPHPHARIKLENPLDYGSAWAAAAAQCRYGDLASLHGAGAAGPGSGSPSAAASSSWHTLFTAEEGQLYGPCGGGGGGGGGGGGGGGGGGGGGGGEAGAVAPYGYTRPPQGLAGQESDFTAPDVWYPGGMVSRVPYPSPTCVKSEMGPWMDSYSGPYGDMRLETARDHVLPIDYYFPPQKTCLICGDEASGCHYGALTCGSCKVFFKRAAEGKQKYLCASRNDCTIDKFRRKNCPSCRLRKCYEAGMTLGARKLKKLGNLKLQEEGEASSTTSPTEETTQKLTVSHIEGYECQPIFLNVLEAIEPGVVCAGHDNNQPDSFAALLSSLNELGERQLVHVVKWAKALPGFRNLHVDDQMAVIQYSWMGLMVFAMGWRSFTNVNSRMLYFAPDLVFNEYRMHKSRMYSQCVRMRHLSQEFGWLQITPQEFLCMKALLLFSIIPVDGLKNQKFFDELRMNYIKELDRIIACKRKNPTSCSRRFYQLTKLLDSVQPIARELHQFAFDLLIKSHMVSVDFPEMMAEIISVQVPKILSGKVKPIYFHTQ
Assay: AR protein degradation in LNCaP cells (Western blotting)
Type: cell-based
Description: Cell lines and Cell Culture: All the LNCaP, VCaP and 22RV1 cells used were purchased from American Type Culture Collection (ATCC). […] All of the cells were supplemented with 10% fetal bovine serum (Invitrogen) at 37° C. in a humidified 5% CO2 incubator.
Western Blotting. Treated cells were lysed by RIPA buffer supplemented with protease and phosphatase inhibitors. […] Software ImageJ was used to quantify the percentage of AR degradation. The net protein bands and loading controls are calculated by deducting the background from the inverted band value. The final relative quantification values are the ratio of net band to net loading control.

[1] = LNCaP, 0.01 μM, treatment time 6 h, average of three independent experiments
[2] = LNCaP, 0.1 μM, treatment time 6 h, average of three independent experiments, read-out: % AR protein degradation in LNCaP Cells
[3] = LNCaP, 1 μM, treatment time 6 h, average of three independent experiments, read-out: % AR protein degradation in LNCaP Cells
[4] = 0.01 μM, treatment time 6 h, average of three independent experiments
[5] = 0.1 μM, treatment time 6 h, average of three independent experiments
[6] = 1 μM, treatment time 6 h, average of three independent experiments
[7] = LNCaP, 6 h, read-out: % AR protein degradation in LNCaP Cells
[8] = 10 μM, treatment time 6 h, average of three independent experiments

For `Cc1cc([C@H](C(=O)N2C[C@H](O)C[C@H]2C(=O)N[C@@H](CC(=O)N2CCC(N3CCC(C#Cc4ccc(N5C(=S)N(c6cnc(C#N)c(C(F)(F)F)c6)C(=O)C56CCC6)cc4)CC3)CC2)c2ccc(-c3scnc3C)cc2)C(C)C)on1` [Compound 30, (2S,4R)—N—((S)-3-(4-((4-(7-(6-Cyano-5-(trifluoromethyl)pyridin-3-yl)-8-oxo-6-thioxo-5,7-diazaspiro[3.4]octan-5-yl)phenyl)ethynyl)-[1,4′-bipiperidin]-1′-yl)-1-(4-(4-methylthiazol-5-yl)phenyl)-3-oxopropyl)-4-hydroxy-1-((R)-3-methyl-2-(3-methylisoxazol-5-yl)butanoyl)pyrrolidine-2-carboxamide], the Dmax at 0.01 µM [1] was 38%, the Dmax at 0.1 µM [2] was 80% and the Dmax at 1 µM [3] was 95%.

In the case of `Cc1cc([C@H](C(=O)N2C[C@H](O)C[C@H]2C(=O)N[C@@H](CC(=O)N2CCC(N3CCC(C#Cc4ccc(C(=O)N[C@H]5C(C)(C)[C@H](Oc6ccc(C#N)c(Cl)c6)C5(C)C)cc4)CC3)CC2)c2ccc(-c3scnc3C)cc2)C(C)C)on1` [Compound 32, (2S,4R)—N—((S)-3-(4-((4-(((1r,3r)-3-(3-Chloro-4-cyanophenoxy)-2,2,4,4-tetramethyl-cyclobutyl)carbamoyl)phenyl)ethynyl)-[1,4′-bipiperidin]-1′-yl)-1-(4-(4-methylthiazol-5-yl)phenyl)-3-oxopropyl)-4-hydroxy-1-((R)-3-methyl-2-(3-methylisoxazol-5-yl)butanoyl)pyrrolidine-2-carboxamide], the “% AR protein degradation in LNCaP Cells” value [4] is reported as 76%, the “% AR protein degradation in LNCaP Cells” value [5] is reported as 98% and the “% AR protein degradation in LNCaP Cells” value [6] is reported as 99%. The “AR degradation (Western blotting, dose-dependent)” value (shortened to “AR degradation”) (LNCaP, at 10 nM) was “partial AR degradation” and the “AR degradation” value (LNCaP, at both 100 nM and 1 μM) was “essentially complete AR degradation”.

`Cc1cc([C@H](C(=O)N2C[C@H](O)C[C@H]2C(=O)N[C@@H](CC(=O)N2CCC(N3CCC(C#Cc4ccc(Cc5c(C)nn(-c6ccc(C#N)c(Cl)c6)c5C)cc4)CC3)CC2)c2ccc(-c3scnc3C)cc2)C(C)C)on1` [Compound 33, (2S,4R)—N—((S)-3-(4-((4-((1-(3-Chloro-4-cyanophenyl)-3,5-dimethyl-1H-pyrazol-4-yl)methyl)phenyl)ethynyl)-[1,4′-bipiperidin]-1′-yl)-1-(4-(4-methylthiazol-5-yl)phenyl)-3-oxopropyl)-4-hydroxy-1-((R)-3-methyl-2-(3-methylisoxazol-5-yl)butanoyl)pyrrolidine-2-carboxamide] gave a Dmax at 0.1 µM [7] of 65%, a Dmax at 1 µM [7] of 93% and a Dmax at 10 µM [7] of 78%.

`Cc1ncsc1-c1ccc([C@H](CC(=O)N2CCC(N3CCC(C#Cc4ccc(C(=O)N[C@H]5C(C)(C)[C@H](Oc6ccc(C#N)c(Cl)c6)C5(C)C)cc4)CC3)CC2)NC(=O)[C@@H]2C[C@@H](O)CN2C(=O)[C@@H](NC(=O)C2(C#N)CC2)C(C)(C)C)cc1` [Compound 35, (2S,4R)—N—((S)-3-(4-((4-(((1r,3r)-3-(3-Chloro-4-cyanophenoxy)-2,2,4,4-tetramethyl-cyclobutyl)carbamoyl)phenyl)ethynyl)-[1,4′-bipiperidin]-1′-yl)-1-(4-(4-methylthiazol-5-yl)phenyl)-3-oxopropyl)-1-((S)-2-(1-cyanocyclopropane-1-carboxamido)-3,3-dimethylbutanoyl)-4-hydroxypyrrolidine-2-carboxamide] was tested, and the “% AR protein degradation in LNCaP Cells” value [4] was 76%, the “% AR protein degradation in LNCaP Cells” value [5] was 99% and the “% AR protein degradation in LNCaP Cells” value [6] was 100%. The “AR degradation” value (LNCaP, at 10 nM) was “partial AR degradation” and the “AR degradation” value (LNCaP, at both 100 nM and 1 μM) was “essentially complete AR degradation”.

In the case of `CC(=O)N[C@H](C(=O)N1C[C@H](O)C[C@H]1C(=O)N[C@@H](CC(=O)N1CCC(N2CCC(C#Cc3ccc(C(=O)N[C@H]4C(C)(C)[C@H](Oc5ccc(C#N)c(Cl)c5)C4(C)C)cc3)CC2)CC1)c1ccc(-c2scnc2C)cc1)C(C)(C)C` [Compound 36, (2S,4R)-1-((S)-2-Acetamido-3,3-dimethylbutanoyl)-N—((S)-3-(4-((4-(((1r,3r)-3-(3-chloro-4-cyanophenoxy)-2,2,4,4-tetramethylcyclobutyl)carbamoyl)phenyl)ethynyl)-[1,4′-bipiperidin]-1′-yl)-1-(4-(4-methylthiazol-5-yl)phenyl)-3-oxopropyl)-4-hydroxypyrrolidine-2-carboxamide], the “% AR protein degradation in LNCaP Cells” value [4] is reported as 39%, the “% AR protein degradation in LNCaP Cells” value [5] is reported as 77% and the “% AR protein degradation in LNCaP Cells” value [6] is reported as 99%.

For `Cc1ncsc1-c1ccc([C@@H](CC(=O)N2CCC(N3CCC(C#Cc4ccc(C(=O)N[C@H]5C(C)(C)[C@H](Oc6ccc(C#N)c(Cl)c6)C5(C)C)cc4)CC3)CC2)NC(=O)[C@@H]2C[C@@H](O)CN2C(=O)[C@@H](NC(=O)C2(F)CC2)C(C)(C)C)cc1` [Compound 37, (2S,4R)—N—((R)-3-(4-((4-(((1r,3r)-3-(3-Chloro-4-cyanophenoxy)-2,2,4,4-tetramethyl-cyclobutyl)carbamoyl)phenyl)ethynyl)-[1,4′-bipiperidin]-1′-yl)-1-(4-(4-methylthiazol-5-yl)phenyl)-3-oxopropyl)-1-((S)-2-(1-fluorocyclopropane-1-carboxamido)-3,3-dimethyl-butanoyl)-4-hydroxypyrrolidine-2-carboxamide], the “% AR protein degradation in LNCaP Cells” value [5] was <5%, the “% AR protein degradation in LNCaP Cells” value [6] was <5% and the “% AR protein degradation in LNCaP Cells” value [8] was <5%.

`Cc1ncsc1-c1ccc([C@H](CC(=O)N2CCC(N3CCC(C#Cc4ccc(C(=O)N[C@H]5C(C)(C)[C@H](Oc6ccc(C#N)c(Cl)c6)C5(C)C)cc4)CC3)CC2)NC(=O)[C@@H]2C[C@@H](O)CN2C(=O)[C@H](NC(=O)C2(F)CC2)C(C)(C)C)cc1` [Compound 38, (2S,4R)—N—((S)-3-(4-((4-(((1r,3r)-3-(3-Chloro-4-cyanophenoxy)-2,2,4,4-tetramethyl-cyclobutyl)carbamoyl)phenyl)ethynyl)-[1,4′-bipiperidin]-1′-yl)-1-(4-(4-methylthiazol-5-yl)phenyl)-3-oxopropyl)-1-((R)-2-(1-fluorocyclopropane-1-carboxamido)-3,3-dimethyl-butanoyl)-4-hydroxypyrrolidine-2-carboxamide] was tested, and the “% AR protein degradation in LNCaP Cells” value [5] was <5%, the “% AR protein degradation in LNCaP Cells” value [6] was <5% and the “% AR protein degradation in LNCaP Cells” value [8] was <5%.

Work on `Cc1cc([C@H](C(=O)N2C[C@H](O)C[C@H]2C(=O)N[C@@H](CC(=O)NCCCCCCCCCNC(=O)c2ccc(C(=O)N[C@H]3C(C)(C)[C@H](Oc4ccc(C#N)c(Cl)c4)C3(C)C)cc2)c2ccc(-c3scnc3C)cc2)C(C)C)on1` [Compound 39, N1-((1r,3r)-3-(3-Chloro-4-cyanophenoxy)-2,2,4,4-tetramethylcyclobutyl)-N4-(9-((S)-3-((2S,4R)-4-hydroxy-1-((R)-3-methyl-2-(3-methylisoxazol-5-yl)butanoyl)pyrrolidine-2-carboxamido)-3-(4-(4-methylthiazol-5-yl)phenyl)propanamido)nonyl)terephthalamide] yielded a Dmax at 0.01 µM [1] of 43%, a Dmax at 0.1 µM [2] of 91% and a Dmax at 1 µM [3] of 96%.
